{
  "source": "paper PMC11148045",
  "about": "“Structural basis for recognition of 26RFa by the pyroglutamylated RFamide peptide receptor” (Cell Discovery, 2024)",
  "key": {"[1]": {"test_system": "QRFPR", "details": "cited from earlier work", "text": "The 26RFa/QRFPR system plays critical roles in energy homeostasis. Uncovering the atomic details of 26RFa recognition and regulation of QRFPR is crucial for unraveling the function of QRFPR and developing effective treatments against obesity, diabetes, and eating disorders. […] The unique organization mode is crucial for the recognition of 26RFa by QRFPR. The C-terminal heptapeptide of 26R ..."}, "[2]": {"target": "T1, QRFPR mutants (Homo sapiens, UniProt Q96P65, S108A)", "T1 construct": "expressed in transfected cells; host or cells: HEK293, transient transfection by electroporation", "T1 sequence (Q96P65 whole entry S108A)": "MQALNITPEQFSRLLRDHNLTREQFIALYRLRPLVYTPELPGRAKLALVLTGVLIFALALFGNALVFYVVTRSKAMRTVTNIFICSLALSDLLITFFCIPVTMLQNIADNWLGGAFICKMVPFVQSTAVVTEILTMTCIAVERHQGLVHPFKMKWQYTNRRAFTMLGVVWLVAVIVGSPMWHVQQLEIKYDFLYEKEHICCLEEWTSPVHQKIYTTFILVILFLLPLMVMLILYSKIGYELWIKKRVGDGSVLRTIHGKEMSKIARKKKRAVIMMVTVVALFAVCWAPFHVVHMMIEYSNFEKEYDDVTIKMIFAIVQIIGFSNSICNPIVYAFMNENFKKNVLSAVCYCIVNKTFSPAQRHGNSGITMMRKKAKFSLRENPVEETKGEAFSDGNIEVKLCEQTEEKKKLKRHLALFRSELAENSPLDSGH", "assay": "26RFa-induced calcium mobilization, receptor mutants", "format": "cell-based", "details": "HEK293, QRFPR S108^2.65A; HEK293, Fluo-4; mean ± S.E.M., n ≥ 3", "description": "(§1) The gene encoding the WT QRFPR, PrPRR, KISS1R, NPFF1R, or NPFF2R was subcloned into the pcDNA3.0 vector with the addition of an N-terminal HA tag. All of the mutations used for functional studies were generated by QuickChange PCR and verified by DNA sequencing.\n(§2) HEK293 cells were obtained from ATCC (Manassas, VA, USA) and cultured in DMEM supplemented with 10% (v/v) FBS, 100 mg/L penicillin, and 100 mg/L streptomycin in 5% CO2 at 37 °C. For transient transfection, ~2.5 × 10^6 cells were mixed with 2 µg plasmids in 200 µL transfection buffer, and electroporation was carried out with a Scientz-2C electroporation apparatus (Scientz Biotech, Ningbo, China). The experiments were carried out 24 h after transfection.\n(§3) For QRFPR, PrRPR, and KISS1R, HEK293 cells transfected with WT receptor or its mutants were seeded at a density of 4 × 10^4 per well into 96-well culture plates and incubated for 24 h at 37 °C in 5% CO2. For NPFF1R and NPFF2R, plasmids were transfected into HEK293 cells stably expressing Gα16. On the next day, cells were incubated with 2 μmol/L Fluo-4 AM in HBSS supplemented with 5.6 mmol/L D-glucose and 250 μmol/L sulfinpyrazone at 37 °C for 45 min. After washing, cells were added with 50 μL HBSS and incubated at room temperature for 10 min, then 25 μL agonist buffer was dispensed into the well using a FlexStation III microplate reader (Molecular Devices), and intracellular calcium change was recorded at an excitation wavelength of 485 nm and an emission wavelength of 525 nm. EC50 and Emax values for each curve were calculated by Prism 8.0 software (GraphPad Software)."}, "[3]": {"target": "T2, QRFPR mutants (Homo sapiens, UniProt Q96P65, C98A)", "T2 construct": "expressed in transfected cells; host or cells: HEK293, transient transfection by electroporation", "T2 sequence (Q96P65 whole entry C98A)": "as the sequence (Q96P65 whole entry S108A) above, with C98A, A108S counted along it", "assay": "26RFa-induced calcium mobilization, receptor mutants", "format": "cell-based", "details": "HEK293, QRFPR C98^2.57A; HEK293, Fluo-4; mean ± S.E.M., n ≥ 3", "description": "as §1, §2, §3"}, "[4]": {"target": "T3, QRFPR mutants (Homo sapiens, UniProt Q96P65, Q184A)", "T3 construct": "expressed in transfected cells; host or cells: HEK293, transient transfection by electroporation", "T3 sequence (Q96P65 whole entry Q184A)": "as the sequence (Q96P65 whole entry S108A) above, with A108S, Q184A counted along it", "assay": "26RFa-induced calcium mobilization, receptor mutants", "format": "cell-based", "details": "HEK293, QRFPR Q184^4.64A; HEK293, Fluo-4; mean ± S.E.M., n ≥ 3", "description": "as §1, §2, §3"}, "[5]": {"target": "T4, QRFPR mutants (Homo sapiens, UniProt Q96P65, T215A)", "T4 construct": "expressed in transfected cells; host or cells: HEK293, transient transfection by electroporation", "T4 sequence (Q96P65 whole entry T215A)": "as the sequence (Q96P65 whole entry S108A) above, with A108S, T215A counted along it", "assay": "26RFa-induced calcium mobilization, receptor mutants", "format": "cell-based", "details": "HEK293, QRFPR T215^5.39A; HEK293, Fluo-4; mean ± S.E.M., n ≥ 3", "description": "as §1, §2, §3"}, "[6]": {"target": "T5, QRFPR mutants (Homo sapiens, UniProt Q96P65, Q125A)", "T5 construct": "expressed in transfected cells; host or cells: HEK293, transient transfection by electroporation", "T5 sequence (Q96P65 whole entry Q125A)": "as the sequence (Q96P65 whole entry S108A) above, with A108S, Q125A counted along it", "assay": "26RFa-induced calcium mobilization, receptor mutants", "format": "cell-based", "details": "HEK293, QRFPR Q125^3.32A; HEK293, Fluo-4; mean ± S.E.M., n ≥ 3", "description": "as §1, §2, §3"}, "[7]": {"target": "T6, QRFPR mutants (Homo sapiens, UniProt Q96P65, F322A)", "T6 construct": "expressed in transfected cells; host or cells: HEK293, transient transfection by electroporation", "T6 sequence (Q96P65 whole entry F322A)": "as the sequence (Q96P65 whole entry S108A) above, with A108S, F322A counted along it", "assay": "26RFa-induced calcium mobilization, receptor mutants", "format": "cell-based", "details": "HEK293, QRFPR F322^7.43A; HEK293, Fluo-4; mean ± S.E.M., n ≥ 3", "description": "as §1, §2, §3"}, "[8]": {"target": "T7, QRFPR mutants (Homo sapiens, UniProt Q96P65, I117A)", "T7 construct": "expressed in transfected cells; host or cells: HEK293, transient transfection by electroporation", "T7 sequence (Q96P65 whole entry I117A)": "as the sequence (Q96P65 whole entry S108A) above, with A108S, I117A counted along it", "assay": "26RFa-induced calcium mobilization, receptor mutants", "format": "cell-based", "details": "HEK293, QRFPR I117^3.24A; HEK293, Fluo-4; mean ± S.E.M., n ≥ 3", "description": "as §1, §2, §3"}, "[9]": {"target": "T8, QRFPR mutants (Homo sapiens, UniProt Q96P65, H293A)", "T8 construct": "expressed in transfected cells; host or cells: HEK293, transient transfection by electroporation", "T8 sequence (Q96P65 whole entry H293A)": "as the sequence (Q96P65 whole entry S108A) above, with A108S, H293A counted along it", "assay": "26RFa-induced calcium mobilization, receptor mutants", "format": "cell-based", "details": "HEK293, QRFPR H293^6.55A; HEK293, Fluo-4; mean ± S.E.M., n ≥ 3", "description": "as §1, §2, §3"}, "[10]": {"target": "T9, QRFPR mutants (Homo sapiens, UniProt Q96P65, V121A)", "T9 construct": "expressed in transfected cells; host or cells: HEK293, transient transfection by electroporation", "T9 sequence (Q96P65 whole entry V121A)": "as the sequence (Q96P65 whole entry S108A) above, with A108S, V121A counted along it", "assay": "26RFa-induced calcium mobilization, receptor mutants", "format": "cell-based", "details": "HEK293, QRFPR V121^3.28A; HEK293, Fluo-4; mean ± S.E.M., n ≥ 3", "description": "as §1, §2, §3"}, "[11]": {"target": "T10, QRFPR mutants (Homo sapiens, UniProt Q96P65, D109A)", "T10 construct": "expressed in transfected cells; host or cells: HEK293, transient transfection by electroporation", "T10 sequence (Q96P65 whole entry D109A)": "as the sequence (Q96P65 whole entry S108A) above, with A108S, D109A counted along it", "assay": "26RFa-induced calcium mobilization, receptor mutants", "format": "cell-based", "details": "HEK293, QRFPR D109^2.67A; HEK293, Fluo-4; mean ± S.E.M., n ≥ 3", "description": "as §1, §2, §3"}, "[12]": {"test_system": "NPY1R and NPY4R", "details": "cited from earlier work", "text": "Specifically, Arg25 and Arg35 in 26RFa and NPY/PP are exposed to a conserved polar environment that includes residues E^45.52, T^5.39, and D/E^6.59 in QRFPR and NPYRs. However, subtle differences exist in the special binding interactions between these arginines and conserved polar residues (Fig. 4d–f). Side chains of Arg35 in NPY/PP form a conserved salt bridge with D^6.59 and a hydrogen bond with T^5.39 (NPY1R and NPY4R) or a salt bridge with E^45.52 (NPY2R) (Fig. 4e, f). In 26RFa, Arg25 retains its salt bridge with E203^45.52 but fails to build a salt bridge with E297^6.59 (Fig. 3b). It is p ... || Phe26 in 26RFa and Tyr36 in NPY/PP show distinct binding characteristics for QRFRP and NPYRs, respectively. […] (Fig. 4e). However, in NPY2R, this hydrogen bond is absent due to the substitution of glutamine with leucine at position 5.46, which lacks a hydrogen bond donor (Fig. 4c, f). Similarly, QRFPR also has a leucine at position 5.46, which cannot form a corresponding hydrogen bond with Phe26 in 26RFa. Furthermore, in contrast to the notable impact of Q^5.46 on the NP ..."}, "[13]": {"target": "T11, QRFPR (WT) (Homo sapiens, UniProt Q96P65)", "T11 construct": "expressed in transfected cells; host or cells: HEK293, transient transfection by electroporation", "T11 sequence (Q96P65 whole entry)": "as the sequence (Q96P65 whole entry S108A) above, with A108S counted along it", "assay": "26RFa-induced calcium mobilization, wild-type receptor", "format": "cell-based", "details": "HEK293, Fluo-4 AM, ex 485/em 525 nm, mean ± S.E.M., at least three independent experiments", "description": "as §1, §2\nas §3, with “For NPFF1R and NPFF2R, plasmids were transfected into HEK293 cells stably expressing Gα16. On the next day, cells were incubated with 2 μmol/L Fluo-4 AM in HBSS supplemented with 5.6 mmol/L D-glucose and 250 μmol/L sulfinpyrazone at 37 °C for 45 min.” left out"}},
  "note": "No end group written: not given here.",
  "data": [
    {"substance": "ASGPLGTLAEELSSYSRRKGGFSFRF-NH2 [26RFa]", "values": [
      {"measurement": "selectivity for QRFPR", "setting": "[1]", "value": "high selectivity of 26RFa for QRFPR"},
      {"measurement": "Emax", "setting": "[2]", "value": "51.7 ± 0.73", "unit": "%"},
      {"measurement": "Emax", "setting": "[3]", "value": "48.4 ± 0.88", "unit": "%"},
      {"measurement": "Emax", "setting": "[4]", "value": "71.4 ± 2.2", "unit": "%"},
      {"measurement": "Emax", "setting": "[5]", "value": "85.8 ± 3.4", "unit": "%"},
      {"measurement": "Emax", "setting": "[6]", "value": "14.1 ± 1.8", "unit": "%"},
      {"measurement": "Emax", "setting": "[7]", "value": "11.1 ± 0.26", "unit": "%"},
      {"measurement": "Emax", "setting": "[8]", "value": "75.1 ± 3.1", "unit": "%"},
      {"measurement": "Emax", "setting": "[9]", "value": "95.5 ± 1.6", "unit": "%"},
      {"measurement": "Emax", "setting": "[10]", "value": "106 ± 5.4", "unit": "%"},
      {"measurement": "Emax", "setting": "[11]", "value": "111 ± 1.3", "unit": "%"},
      {"measurement": "role of amide-surrounding residues (C^2.57, T^2.61, Q^3.32, Q/H^7.39) in activity", "setting": "[12]", "value": "critical for 26RFa and NPY/PP activities"},
      {"measurement": "Emax", "setting": "[13]", "value": "100 ± 1", "unit": "%"}
    ]}
  ]
}
